In general, half-life refers to how long it takes for the measured level to halve. A lower half-life goes with rapid decline.

Each structure is given as a SMILES string.

One data set has as its target T1, PRMT5/MEP50 (Homo sapiens, UniProt O14744).
T1 construct: purchased BPS Bioscience Inc. (USA)
The experiment in a line: PRMT5 enzymatic activity inhibition experiment (AlphaScreen). The data set is classed as biochemical. The text has this:
Materials: PRMT5/MEP50 proteins were purchased from BPS Bioscience Inc. (USA); Histone H4 Peptide substrate was purchased from Sangon Biotech (Shanghai) Co., Ltd.; Anti-Histone H4 (symmetric dimethyl R3) antibody—ChIP Grade was purchased from Abcam PLC. (USA); S-(5′-Adenosyl)-L-methionine chloride dihydrochloride was purchased from Sigma PLC. (USA); 384-well plate, AlphaScreen Streptavidin Donor beads, AlphaScreen Protein A Acceptor beads, and Envision 2104 multi-label Reader were purchased from Perkin-Elmer Instruments (USA) Corporation; and Echo 550 Liquid Handler was purchased from Labcyte Inc. (USA).
Enzymatic activity assay: The compounds were added into a 384-well plate by using the Echo 550 Liquid Handler with the final concentration of 0-1000 nM (initial concentration: 1000 nM, 3-fold dilution, for 10 points), and the DMSO content was 0.5%. 10 μL of a 2× PRMT5/MEP50 solution was added into each well and incubated at room temperature for 30 minutes. 10 μL of 2× PRMT5/MEP50 substrate solution was added to each well to start the reaction and incubated at room temperature for 60 minutes. A 6× detection reagent containing AlphaScreen Protein A Acceptor beads and Anti-Histone H4 (symmetric dimethyl R3) antibodies was prepared and 5 μL was added to each well. The plate was incubated at room temperature for 60 minutes. A 6× detection reagent containing AlphaScreen Streptavidin Donor beads was prepared and 5 μL was added to each well. The plate was incubated at room temperature for 60 minutes. The signal values were detected by using the Envision.

The next data set has as its system Z-138 cells. The experiment in a line: Inhibitory activity on tumor cell proliferation (Cell-Titer Glo, 8 days). The data set is classed as cell-based. Conditions: Homo sapiens, 192 h, read-out: Inhibition of cell proliferation Z-138 IC50. On the procedure:
Materials and cells: Z-138 cells were purchased from ATCC (USA); IMDM medium and penicillin-streptomycin were purchased from Sigma PLC. (USA); horse serum was purchased from Hyclone (USA); 96-well plate was purchased from Corning (USA); and Cell-Titer Glo reagent was purchased from Promega (USA).
(§1) Cell culture: Z-138 cells were cultured in an IMDM culture solution containing 10% Horse serum+1% penicillin−streptomycin at 37° C., 5% CO2. Cells in logarithmic growth phase were suitable for the experiment.
Detection of cell proliferation activity: The inhibitory activities of the compounds on the proliferation of Z-138 cells were detected by using the Cell-Titer Glo reagent. The concentrations of the cells were adjusted, and 180 μL was inoculated in each well of the 96-well plate (500/well) and equilibrated for 10-15 minutes at 37° C., 5% CO2. 20 μL of a culture solution containing the compounds was added into each well with the final concentration reaching 0-300 nM (initial concentration: 300 nM, 3-fold dilution, for 10 points), and the DMSO content was 0.1%. The cell plate was placed at 37° C., 5% CO2 and incubated for 8 days. Culture solution was replaced at day 4: 100 μL of the supernatant was slowly aspirated and 100 μL of a fresh culture solution containing the compounds was provided as a supplement while the concentrations of the compounds were held constant. The cell viability was detected by using the Cell-Titer Glo reagent.

A further data set has as its system SDMA in Z-138 cells. The data set can be described thus: Inhibitory activity on SDMA in cells (immunofluorescent assay). The data set is classed as cell-based. The conditions noted are these: Homo sapiens, 48 h, 2 days, read-out: Inhibition of SDMA in cells IC50.
Description: Materials and cells: Z-138 cells were purchased from ATCC (USA); IMDM medium and penicillin-streptomycin were purchased from Sigma PLC. (USA); horse serum was purchased from Hyclone (USA); Hoechst antibodies were purchased from Invitrogen (USA); Alexa Fluor 488 goat anti-rabbit IgG antibodies were purchased from Invitrogen (USA); Anti-dimethyl-Arginine symmetric (SYM11) antibodies were purchased from Merck & Co., Inc. (USA); DPBS was purchased from Gibco (USA); Nonfat Dry milk was purchased from Cell Signaling Technology (USA); paraformaldehyde was purchased from Beijing Solarbio Science & Technology Co., Ltd.; 384-well plate and Echo 550 Liquid Handler were purchased from Labcyte Inc. (USA); and an ImageXpress Nano was purchased from Molecular Devices (USA).
as §1
Immunofluorescent assay: The effects of the compounds on SDMA in Z-138 cells were detected by using immunofluorescence. The cells were adjusted to the concentration of 1*10^5/mL and 40 μL was inoculated in each well of the 384-well plate (4000/well) and equilibrated for 10-15 minutes at 37° C., 5% CO2. The compound was added into a 384-well plate by using the Echo 550 Liquid Handler with the final concentration of 0-300 nM (initial concentration: 300 nM, 3-fold dilution, for 10 points), and the DMSO content was 0.1%. The cell plate was placed at 37° C., 5% CO2 and incubated for 2 days. 40 μL of 8% paraformaldehyde was added into each well and incubated at room temperature for 30 minutes. The supernatant was discarded, the plate was washed with DPBS, and 40 μL of 0.5% PBST (phosphate buffer with Tween) was added into each well and incubated at room temperature for 60 minutes. The supernatant was discarded, the plate was washed with 0.05% PBST, and 40 μL of a blocking solution (1% Nonfat milk in 0.05% PBST) was added into each well and incubated at room temperature for 60 minutes. The supernatant was discarded, and 20 μL of the primary antibody (SYM11, diluted with a blocking solution at 1:500) was added into each well and maintained at 4° C. overnight. The supernatant was discarded, the plate was washed with 0.05% PBST, 20 μL of the secondary antibody (Alexa Fluor 488 goat anti-rabbit and Hoechst, diluted with a blocking solution at 1:1000 and 1:5000, respectively) was added to each well and incubated at room temperature for 60 minutes. The supernatant was discarded, the plate was washed with 0.05% PBST, and the fluorescent intensity was detected with ImageXpress Nano.

A short description of data set [1]: Hepatocellular metabolic stability test, human hepatocytes.
Description: (§2) Experimental materials: Human hepatocytes were purchased from Biopredic; mouse hepatocytes were purchased from BioIVT; acetonitrile and methanol were purchased from Merck & Co., Inc.; AOPI dyes were purchased from Nexcelom; dexamethasone was purchased from NIFDC; DMSO was purchased from Beijing Solarbio Science & Technology Co., Ltd.; DPBS (10×), GlutaMAX™-1 (100×) and recombinant human insulin were purchased form Gibco by Life Technologies; fetal bovine serum was purchased from Corning; formic acid was purchased from DIKMAPURE; Isotonic Percoll was purchased from GE Healthcare; alprazolam was purchased from Supelco; caffeine was purchased from ChromaDex.inc; and HEPES, tolbutamide and Williams' Medium E were purchased from Sigma.
(§3) The powder of a test substance was formulated with DMSO into a stock solution with a high concentration, which was diluted to a working solution of 100 μM with acetonitrile prior to use. The final concentration of the test substance was 1 μM.
(§4) 49.5 mL of Williams'E Medium and 0.5 mL of GlutaMAX were mixed as an incubation media. Hepatocyte thawing media and incubation media were placed in a 37° C. water-bath and pre-heated for at least 15 minutes prior to use. A tube of hepatocytes stored at an ultra-low temperature was taken and the hepatocytes were ensured to be at a frozen state at a low temperature prior to thawing. The hepatocytes were rapidly placed in a 37° C. water-bath and gently shaken until all the ice crystals were dispersed, and then after 70% ethanol was sprayed, the hepatocytes were transferred to a biosafety cabinet. The content of the tube was poured into a centrifugal tube containing 50 mL of thawing media and centrifuged at 100 g for 10 minutes. After centrifugation, the thawing media was aspirated, and a sufficient amount of incubation media was added to obtain a cell suspension with a cell density of about 1.5×10^6 cells/mL. The hepatocytes were counted, and the viable cell density was determined using Cellometer Vision, and the survival rate of the hepatocytes must be higher than 75%. The hepatocyte suspension was diluted by using the incubation media to a viable cell density of 0.5×10^6 viable cells/mL.
(§5) 247.5 μL of viable cell (human hepatocytes or mouse hepatocytes) suspension or media were transferred into a 96-well deep-well plate, and the deep-well plate was placed in a vortex incubator and pre-heated for 10 minutes. Incubation of all the samples was performed in parallel duplicate. Test substance (2.5 μL, 100 μM) was added into each well to start the reaction and the deep-well plate was placed in the vortex incubator again. The samples were incubated, and 25 μL of the suspension was taken at 0, 15, 30, 60, 90 and 120 minutes, respectively. 125 μL of acetonitrile containing internal standard (100 nM alprazolam, 200 nM caffeine, and 100 nM tolbutamide) was added to terminate the reaction. The mixture was vortexed for 10 minutes and centrifuged at 3220 g, 4° C. for 30 minutes. After centrifugation, 100 μL of the supernatant was transferred into the loading plate and 150 μL of pure water was added and mixed uniformly for LC-MS/MS analysis.
(§6) All the data calculation was performed by the Microsoft Excel software. The peak area was detected by extracting the ion chromatogram. The in vitro half-life (t1/2) of the parent drug was detected by performing linear fitting of the natural logarithm of elimination percent of the parent drug and time.
(§7) The in vitro half-life (t1/2) was calculated by means of the slope:
A short description of data set [2]: Hepatocellular metabolic stability test, mouse hepatocytes.
Description: as §2, §3, §4, §5, §6, §7

T1 sequence (O14744 2-637 limits assumed): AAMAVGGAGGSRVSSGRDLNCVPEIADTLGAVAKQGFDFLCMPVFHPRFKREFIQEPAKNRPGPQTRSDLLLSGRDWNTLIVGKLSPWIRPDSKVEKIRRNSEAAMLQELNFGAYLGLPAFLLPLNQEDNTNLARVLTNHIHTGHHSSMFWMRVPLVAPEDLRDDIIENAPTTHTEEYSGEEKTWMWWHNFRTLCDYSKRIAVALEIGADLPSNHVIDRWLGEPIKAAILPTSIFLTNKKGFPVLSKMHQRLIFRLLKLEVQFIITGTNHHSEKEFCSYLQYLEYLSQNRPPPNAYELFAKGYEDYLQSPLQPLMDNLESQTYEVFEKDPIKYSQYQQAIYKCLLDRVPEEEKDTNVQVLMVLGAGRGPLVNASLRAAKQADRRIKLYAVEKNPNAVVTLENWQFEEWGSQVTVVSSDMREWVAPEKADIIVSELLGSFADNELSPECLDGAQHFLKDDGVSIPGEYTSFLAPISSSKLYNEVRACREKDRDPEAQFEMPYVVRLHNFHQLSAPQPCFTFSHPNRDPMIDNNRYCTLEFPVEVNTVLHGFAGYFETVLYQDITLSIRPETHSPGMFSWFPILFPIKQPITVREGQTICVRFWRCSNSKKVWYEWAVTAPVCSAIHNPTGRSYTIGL
T1 sequence (Q9BQA1 2-342 partner limits assumed): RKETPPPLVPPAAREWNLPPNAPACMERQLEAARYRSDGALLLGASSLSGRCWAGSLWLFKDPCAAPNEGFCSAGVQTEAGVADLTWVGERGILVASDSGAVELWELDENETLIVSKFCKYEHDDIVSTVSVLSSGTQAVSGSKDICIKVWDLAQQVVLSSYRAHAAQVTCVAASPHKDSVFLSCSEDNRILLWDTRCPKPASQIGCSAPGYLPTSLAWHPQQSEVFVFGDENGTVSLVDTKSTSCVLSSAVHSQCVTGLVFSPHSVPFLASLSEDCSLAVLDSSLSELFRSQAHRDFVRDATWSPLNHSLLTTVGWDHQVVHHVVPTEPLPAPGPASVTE

Turning to `CCN1CCN(C[C@@H](O)[C@@H]2Cc3ccccc3CN2)C(=O)c2ccc(C(=O)N3CCC4(CC3)CC(OC)C4)cc21.Cl` [Compound 002, 1-ethyl-4-((R)-2-hydroxy-2-((S)-1,2,3,4-tetrahydroisoquinolin-3-yl)ethyl)-8-(2-methoxy-7-azaspiro[3.5]nonane-7-carbonyl)-1,2,3,4-tetrahydro-5H-benzo[e][1,4]diazepin-5-one hydrochloride], the IC50 against PRMT5/MEP50 came to 4.05 nM; in the data set on Z-138 cells it was 2.19 nM; in the data set with SDMA in Z-138 cells it was 1.4 nM. The half-life at 1 μM in data set [1] is 4.21 h; in data set [2], 1.58 h.

Source of the values: patent US20230250108A1, “TETRAHYDROISOQUINOLINE COMPOUNDS AND USE THEREOF” (JIANGSU SIMCERE PHARMACEUTICAL CO., LTD., priority 2020, published 2023).
